Assay results as given in patent US9045470B2, “Compounds and compositions as TLR activity modulators” (IRM LLC, priority 2009, dated 2015).
pEC50: −log10 of the molar value.

Key:
[1] = Binding to alum in 10 mM histidine buffer, LC-MS/MS of supernatant; assay type: physicochemical; settings: 10 mM histidine buffer pH 6.8; final compound 0.1 mg/mL; 37° C. for 5 hours; 100% minus % unbound
Procedure: The resulting solution was diluted 10-fold with blank histidine buffer to a final compound concentration of 0.1 mg/mL. Diluted solutions were incubated at 37° C. for 5 hours. The samples were centrifuged at 14,000 rpm for 10 minutes to pellet the insoluble. The supernatant (along with an internal standard) was then evaluated by LC-MS/MS using a ballistic gradient (from 5% CH3CN-0.5% formic acid to 95% CH3CN-1.0% formic acid in 3.5 minutes) on a Waters Atlantis dC18 (50 mm×2.1 mm) column at room temperature against a calibration curve prepared at known compound concentrations ranging from 0.005 to 50 μM. The concentration in the supernatant was calculated as % unbound to alum compared to control; the % bound to alum was calculated as 100% minus % unbound.

[2] = target: T1, human TLR7 (Homo sapiens, UniProt Q9NYK1); assay: Reporter gene assay: HEK293 cells stably transfected with human TLR7 and NF-kB-driven luciferase reporter; assay type: cell-based
T1 construct: expressed in transfected cells; host or cells: HEK 293 (human embryonic kidney 293), stably transfected; co-transfected pNifty-Luciferase reporter
T1 sequence (Q9NYK1 27-1049): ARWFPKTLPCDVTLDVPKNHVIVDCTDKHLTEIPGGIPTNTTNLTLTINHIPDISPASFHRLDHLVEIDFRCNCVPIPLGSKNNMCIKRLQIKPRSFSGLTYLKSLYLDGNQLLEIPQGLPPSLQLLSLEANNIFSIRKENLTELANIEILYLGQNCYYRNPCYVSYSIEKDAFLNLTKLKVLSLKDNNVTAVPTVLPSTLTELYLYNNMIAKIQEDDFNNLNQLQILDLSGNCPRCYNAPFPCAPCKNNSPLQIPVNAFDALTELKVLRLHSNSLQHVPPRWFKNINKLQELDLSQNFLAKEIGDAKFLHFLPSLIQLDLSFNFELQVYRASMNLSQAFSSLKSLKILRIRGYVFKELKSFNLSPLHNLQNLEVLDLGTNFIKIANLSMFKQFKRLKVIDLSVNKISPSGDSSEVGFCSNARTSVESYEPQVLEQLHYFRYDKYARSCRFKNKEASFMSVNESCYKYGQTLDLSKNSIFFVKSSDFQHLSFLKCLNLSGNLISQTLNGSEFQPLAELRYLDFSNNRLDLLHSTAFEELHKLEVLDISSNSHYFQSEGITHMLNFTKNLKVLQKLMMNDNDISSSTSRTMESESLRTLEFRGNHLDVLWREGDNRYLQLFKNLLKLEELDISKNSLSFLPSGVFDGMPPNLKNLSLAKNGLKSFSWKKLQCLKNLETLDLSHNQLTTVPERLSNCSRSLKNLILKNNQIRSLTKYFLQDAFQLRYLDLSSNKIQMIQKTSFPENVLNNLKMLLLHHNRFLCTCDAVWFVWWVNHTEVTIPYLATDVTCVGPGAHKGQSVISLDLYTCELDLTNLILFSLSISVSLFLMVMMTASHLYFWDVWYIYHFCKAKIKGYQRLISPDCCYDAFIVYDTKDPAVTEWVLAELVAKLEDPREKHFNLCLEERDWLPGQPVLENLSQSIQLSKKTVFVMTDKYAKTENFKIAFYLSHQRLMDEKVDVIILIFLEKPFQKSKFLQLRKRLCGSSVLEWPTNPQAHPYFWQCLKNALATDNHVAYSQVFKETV
Procedure: Human embryonic kidney 293 (HEK 293) cells were stably transfected with human TLR7 and an NF-kB-driven luciferase reporter vector (pNifty-Luciferase). As a control assay, normal Hek293 transfected with pNifty-Luc were used. Cells were cultured in DMEM supplemented with 2 mM L-glutamine, 10% heart inactivated FBS, 1% penicillin and streptomycin, 2 μg/ml puromycin (InvivoGen #ant-pr-5) and 5 μg/ml of blasticidin (Invitrogen #46-1120). Bright-Glo™ Luciferase assay buffer and substrate were supplied by Promega #E263B and #E264B (assay substrate and buffer respectively). 384 well clear-bottom plates were supplied by Greiner bio-one (#789163-G) and were custom bar-coded plates.
Cells were plated at 25,000 cells/well in 384-well plates in a final volume of 50 μl of media. Cells were allowed to adhere to the plates after overnight (18 hours) culture at 37° C. and 5% CO2. Serially diluted experimental and positive control compounds were then dispensed to each well and incubated for 7 hours at 37° C. and 5% CO2. Cells stimulated with DMSO alone also serve as negative controls. After the incubation, 30 μl of the pre-mix assay buffer and substrate buffer were added to each well according to manufacturer's instructions.
The EC50 value in those experiments is given as that concentration of the test compound in question that provoke a response halfway between the baseline and maximum responses. […] Such EC50 values are obtained relative to the activity of resiquimod set to 100%.

[3] = Desorption from aluminum hydroxide with KH2PO4 and n-butanol extraction, HPLC; assay type: physicochemical; settings: alum formulation as described for compound 1
Procedure: An organic solvent extraction method was used to evaluate whether compound 1 was covalently bound to aluminum hydroxide. The formulation was prepared as follows: 2 mg/ml aluminum hydroxide, 100 μg/dose compound 1, 10 mM histidine buffer) and the pH was adjusted to 9. A control formulation without aluminum hydroxide was also prepared.
One ml of the formulation containing Alum was mixed with 1 ml of KH2PO4 1M pH 9 (0.5M final conc, pH 9) and was left in gentle agitation overnight at 37° C. to allow desorption of compound 1 (compound 5) from the aluminum hydroxide via ligand exchange with the phosphate anions. Organic extraction was then performed: 1 ml of each sample was mixed with 1 ml of n-butanol and vortexed. After the formation of 2 phases, the upper phase (butanol) was recovered, dried with N2 and resuspended in MeOH/10 mM NaOH. HPLC analysis was run both for the formulation supernatants and for the butanol extracted samples (C18 column; 0-100% B in 2 min; A=0.1% TFA in H2O; B=0.1% TFA in ACN).
The adsorption of compound 16 and compound 18 to aluminum hydroxide was also evaluated using the alum formulation described above for compound 1. […] In addition, SDS PAGE analysis of antigen binding in the presence of compound 16 or compound 18 was carried out as described above.

Row | SMILES | % Alum bound in Histidine buffer [1] [%] | pEC50 [2] | compound in supernatant after addition of aluminum hydroxide (HPLC) [3]
1 | Cc1cc(OCCOCCOCCP(=O)(O)O)ccc1CCc1cnc2c(N)nc3cc(CCC(=O)O)ccc3c2c1 [Compound 20, 3-(5-amino-2-(2-methyl-4-(2-(2-(2-phosphonoethoxy)ethoxy)ethoxy)phenethyl)benzo[f][1,7]naphthyridin-8-yl)propanoic acid] | 97.0 | 6.42 | 
2 | Cc1cc(OCCOCCC(F)(F)P(=O)(O)O)ccc1CCc1cnc2c(N)nc3cc(CCC(=O)O)ccc3c2c1 [Compound 19, 3-(5-amino-2-(4-(2-(3,3-difluoro-3-phosphonopropoxy)ethoxy)-2-methylphenethyl)benzo[f][1,7]naphthyridin-8-yl)propanoic acid] | 96.0 |  | 
3 | Cc1ccc2c(c1)nc(N)c1ncc(CCc3ccc(OCCOCCOCCC(F)(F)P(=O)(O)O)cc3C)cc12 [Compound 6, 3-(2-(2-(4-(2-(5-amino-8-methylbenzo[f][1,7]naphthyridin-2-yl)ethyl)-3-methylphenoxy)ethoxy)ethoxy)-1,1-difluoropropylphosphonic acid] | 98.2 | 5.79 | 
4 | Cc1cc(OCCOCCOCCC(F)(F)P(=O)(O)O)ccc1CCc1cnc2c(N)nc3cc(CCC(=O)O)ccc3c2c1 [Compound 17, 3-(5-amino-2-(4-(2-(2-(3,3-difluoro-3-phosphonopropoxy)ethoxy)ethoxy)-2-methylphenethyl)benzo[f][1,7]naphthyridin-8-yl)propanoic acid] | 96.2 | 8.30 | 
5 | Cc1ccc2c(c1)nc(N)c1ncc(CCc3ccc(OCCCCCCP(=O)(O)O)cc3C)cc12 [Compound 23, 6-(4-(2-(5-amino-8-methylbenzo[f][1,7]naphthyridin-2-yl)ethyl)-3-methylphenoxy)hexylphosphonic acid] |  | 6.10 | 
6 | Cc1ccc2c(c1)nc(N)c1ncc(CCc3ccc(OCCCCP(=O)(O)O)cc3C)cc12 [Compound 28, 4-(4-(2-(5-amino-8-methylbenzo[f][1,7]naphthyridin-2-yl)ethyl)-3-methylphenoxy)butylphosphonic acid] |  | 6.28 | 
7 | COc1ccc(CCc2cnc3c(N)nc4cc(/C=C(\F)P(=O)(O)O)ccc4c3c2)c(C)c1 [Compound 12, (E)-2-(5-Amino-2-(4-methoxy-2-methylphenethyl)benzo[f][1,7]naphthyridin-8-yl)-1-fluorovinylphosphonic acid] |  | 6.70 | 
8 | Cc1cc(OCCCC(F)(F)P(=O)(O)O)ccc1CCc1cnc2c(N)nc3cc(CCC(=O)O)ccc3c2c1 [Compound 16, 3-(5-amino-2-(4-(4,4-difluoro-4-phosphonobutoxy)-2-methylphenethyl)benzo[f][1,7]naphthyridin-8-yl)propanoic acid] | 94.5 | 6.86 | no compound was observed in the supernatant
9 | Cc1ccc2c(c1)nc(N)c1ncc(CCc3ccc(OCCOCCC(F)(F)P(=O)(O)O)cc3C)cc12 [Compound 7, 3-(2-(4-(2-(5-amino-8-methylbenzo[f][1,7]naphthyridin-2-yl)ethyl)-3-methylphenoxy)ethoxy)-1,1-difluoropropylphosphonic acid] |  | 6.00 | 
10 | Cc1ccc2c(c1)nc(N)c1ncc(CCc3ccc(OCCCCCC(F)(F)P(=O)(O)O)cc3C)cc12 [Compound 24, 6-(4-(2-(5-amino-8-methylbenzo[f][1,7]naphthyridin-2-yl)ethyl)-3-methylphenoxy)-1,1-difluorohexylphosphonic acid] |  | 5.37 | 
11 | Cc1ccc2c(c1)nc(N)c1ncc(CCc3ccc(OCc4ccc(CP(=O)(O)O)cc4)cc3C)cc12 [Compound 25, 4-((4-(2-(5-amino-8-methylbenzo[f][1,7]naphthyridin-2-yl)ethyl)-3-methylphenoxy)methyl)benzylphosphonic acid] |  | 6.01 | 
12 | Cc1ccc2c(c1)nc(N)c1ncc(CCc3ccc(OCCCCC(F)(F)P(=O)(O)O)cc3C)cc12 [Compound 4, 5-(4-(2-(5-amino-8-methylbenzo[f][1,7]naphthyridin-2-yl)ethyl)-3-methylphenoxy)-1,1-difluoropentylphosphonic acid] |  | 6.25 | 
